According to ChEMBL document CHEMBL1201862, “PubChem BioAssay data set” (2004):
Calls of active or inactive are those of the source.

Experiments:
DNA topoisomerase = DNA topoisomerase (Yersinia pestis, UniProt A0A2S9PM60); test: Yersinia topoisomerase I cleavage product accumulation – biochemical, cherry-pick, dose response (AID 588525)
[1] = biological target: Acyl-homoserine lactone acylase PvdQ (Pseudomonas aeruginosa (strain LESB58), UniProt Q9I194); test: PvdQ acylase enzyme activity blockers – biochemical, fluorescence, plate reader and imaging, cherry-picks, dose response (AID 493231)
Sequence of Acyl-homoserine lactone acylase PvdQ (Q9I194 24-193 limits assumed): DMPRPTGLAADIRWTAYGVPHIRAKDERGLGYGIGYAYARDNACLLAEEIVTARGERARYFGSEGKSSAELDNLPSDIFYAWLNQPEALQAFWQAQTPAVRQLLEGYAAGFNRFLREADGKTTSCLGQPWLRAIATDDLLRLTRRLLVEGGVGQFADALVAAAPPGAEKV
Sequence of Acyl-homoserine lactone acylase PvdQ (Q9I194 217-762 limits assumed): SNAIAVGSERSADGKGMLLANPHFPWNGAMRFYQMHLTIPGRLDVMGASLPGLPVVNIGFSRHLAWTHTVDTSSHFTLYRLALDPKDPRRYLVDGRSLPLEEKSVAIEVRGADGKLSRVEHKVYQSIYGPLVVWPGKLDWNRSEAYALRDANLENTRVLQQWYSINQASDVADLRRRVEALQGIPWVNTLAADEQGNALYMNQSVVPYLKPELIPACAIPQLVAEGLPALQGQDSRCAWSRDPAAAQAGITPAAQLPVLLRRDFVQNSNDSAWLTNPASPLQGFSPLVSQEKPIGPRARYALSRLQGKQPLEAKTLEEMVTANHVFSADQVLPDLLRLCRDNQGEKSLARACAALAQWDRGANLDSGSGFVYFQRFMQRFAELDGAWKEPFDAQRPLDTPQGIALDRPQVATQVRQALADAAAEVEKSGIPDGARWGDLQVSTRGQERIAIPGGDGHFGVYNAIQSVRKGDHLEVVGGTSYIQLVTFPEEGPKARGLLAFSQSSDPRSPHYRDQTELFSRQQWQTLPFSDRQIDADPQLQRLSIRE

HeLa = test: toxicity to human HeLa cells – cell-based, 48 h, plate reader, cherry-picks, cytotoxicity control, dose response (AID 504942); type: functional
Hexokinase-1 = biological target: T1, Hexokinase-1 (Homo sapiens, UniProt P19367); test: SAR analysis of small molecule inhibitors of hexokinase domain containing I (HKDC1) in the hexokinase 1 selectivity assay. [Related pubchem assays (depositor defined):AID493160, AID493190]; type: functional
T1 sequence (P19367 whole entry): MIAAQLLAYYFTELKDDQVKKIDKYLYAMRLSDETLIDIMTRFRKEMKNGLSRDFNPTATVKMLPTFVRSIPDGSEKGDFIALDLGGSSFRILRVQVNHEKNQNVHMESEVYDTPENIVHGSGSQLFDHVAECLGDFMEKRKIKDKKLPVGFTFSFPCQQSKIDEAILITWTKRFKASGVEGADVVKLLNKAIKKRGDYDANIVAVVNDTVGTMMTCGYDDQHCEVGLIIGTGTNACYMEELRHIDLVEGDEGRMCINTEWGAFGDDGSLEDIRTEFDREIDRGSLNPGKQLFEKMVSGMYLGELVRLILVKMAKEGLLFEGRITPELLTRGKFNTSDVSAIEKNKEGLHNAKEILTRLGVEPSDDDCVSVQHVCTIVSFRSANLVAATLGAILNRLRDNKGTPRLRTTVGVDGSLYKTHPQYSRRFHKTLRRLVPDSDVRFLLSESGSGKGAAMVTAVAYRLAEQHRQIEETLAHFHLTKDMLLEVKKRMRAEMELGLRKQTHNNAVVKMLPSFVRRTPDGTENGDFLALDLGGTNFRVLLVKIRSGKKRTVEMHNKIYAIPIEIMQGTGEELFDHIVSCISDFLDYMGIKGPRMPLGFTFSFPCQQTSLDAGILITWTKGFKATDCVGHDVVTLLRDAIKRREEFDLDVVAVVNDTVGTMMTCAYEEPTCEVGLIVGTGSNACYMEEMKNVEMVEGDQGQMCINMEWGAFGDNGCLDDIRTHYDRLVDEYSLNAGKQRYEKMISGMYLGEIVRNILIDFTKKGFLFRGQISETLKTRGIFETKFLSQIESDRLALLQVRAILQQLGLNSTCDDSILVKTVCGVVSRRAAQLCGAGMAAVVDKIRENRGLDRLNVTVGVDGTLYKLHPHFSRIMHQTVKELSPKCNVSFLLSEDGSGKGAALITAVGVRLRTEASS

Hexokinase HKDC1 = biological target: T2, Hexokinase HKDC1 (Homo sapiens, UniProt Q2TB90); test: SAR analysis of small molecule inhibitors of hexokinase domain containing I (HKDC1). [Related pubchem assays (depositor defined):AID493160, AID493190]; type: functional
T2 sequence (Q2TB90 whole entry): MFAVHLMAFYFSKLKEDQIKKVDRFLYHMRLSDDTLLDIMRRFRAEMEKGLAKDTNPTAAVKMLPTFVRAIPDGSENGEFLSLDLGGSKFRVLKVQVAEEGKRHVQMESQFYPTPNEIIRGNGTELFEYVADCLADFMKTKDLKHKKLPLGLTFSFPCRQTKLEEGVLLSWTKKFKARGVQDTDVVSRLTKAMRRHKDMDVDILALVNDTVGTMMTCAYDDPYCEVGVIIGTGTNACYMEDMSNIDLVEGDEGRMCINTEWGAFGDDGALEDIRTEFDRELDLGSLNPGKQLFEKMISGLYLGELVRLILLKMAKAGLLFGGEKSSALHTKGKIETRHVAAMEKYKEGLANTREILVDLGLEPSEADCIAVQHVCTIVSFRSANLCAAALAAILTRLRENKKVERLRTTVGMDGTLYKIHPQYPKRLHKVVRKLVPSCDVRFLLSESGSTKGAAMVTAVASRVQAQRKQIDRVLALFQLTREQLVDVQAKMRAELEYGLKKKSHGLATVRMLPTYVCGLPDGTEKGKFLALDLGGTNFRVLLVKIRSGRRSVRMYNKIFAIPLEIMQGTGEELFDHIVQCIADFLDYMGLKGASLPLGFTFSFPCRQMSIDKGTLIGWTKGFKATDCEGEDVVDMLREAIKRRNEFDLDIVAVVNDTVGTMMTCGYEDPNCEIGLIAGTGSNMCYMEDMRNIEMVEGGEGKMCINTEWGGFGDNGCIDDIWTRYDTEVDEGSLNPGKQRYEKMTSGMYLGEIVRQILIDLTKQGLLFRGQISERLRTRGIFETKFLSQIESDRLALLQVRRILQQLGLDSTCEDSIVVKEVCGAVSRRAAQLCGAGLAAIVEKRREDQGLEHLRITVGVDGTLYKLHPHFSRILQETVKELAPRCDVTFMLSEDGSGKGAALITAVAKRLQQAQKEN

Sequence of DNA topoisomerase (A0A2S9PM60 whole entry): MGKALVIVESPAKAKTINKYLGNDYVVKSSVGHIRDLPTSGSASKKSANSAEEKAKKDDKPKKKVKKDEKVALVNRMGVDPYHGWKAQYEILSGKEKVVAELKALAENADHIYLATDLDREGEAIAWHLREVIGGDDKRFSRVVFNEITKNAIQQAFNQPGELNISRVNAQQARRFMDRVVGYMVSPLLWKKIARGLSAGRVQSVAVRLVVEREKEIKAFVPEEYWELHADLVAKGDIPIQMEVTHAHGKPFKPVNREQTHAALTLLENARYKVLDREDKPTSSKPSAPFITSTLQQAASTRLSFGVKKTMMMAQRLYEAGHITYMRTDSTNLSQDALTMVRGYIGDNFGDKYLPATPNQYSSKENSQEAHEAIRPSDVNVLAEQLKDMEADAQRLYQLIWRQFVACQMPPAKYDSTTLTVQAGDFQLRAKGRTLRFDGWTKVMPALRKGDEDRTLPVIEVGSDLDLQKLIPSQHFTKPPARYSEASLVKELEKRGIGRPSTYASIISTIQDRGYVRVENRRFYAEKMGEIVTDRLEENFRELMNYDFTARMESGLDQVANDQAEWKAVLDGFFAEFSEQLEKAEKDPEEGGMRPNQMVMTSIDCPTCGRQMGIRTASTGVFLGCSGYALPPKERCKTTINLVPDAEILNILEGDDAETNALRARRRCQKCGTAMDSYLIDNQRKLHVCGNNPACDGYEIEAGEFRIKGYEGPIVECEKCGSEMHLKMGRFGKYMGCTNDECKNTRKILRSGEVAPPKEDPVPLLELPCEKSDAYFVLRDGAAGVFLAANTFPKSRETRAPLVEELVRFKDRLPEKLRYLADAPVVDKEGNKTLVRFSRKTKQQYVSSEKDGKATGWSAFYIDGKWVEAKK

Cc1cc(NC(=O)c2cc(-c3ccccc3)on2)n(-c2ccccc2)n1
AC50 (DNA topoisomerase): 4.16 µM (active)

Cc1cccc(NC(=O)c2ccc3c(c2)OCCO3)n1
AC50 [1]: 10.2 µM (active) | AC50 (HeLa): 94.1 µM (active)

Cc1ccccc1/C=C/c1nc2ccccc2c(=O)n1Cc1ccccc1
IC50 (Hexokinase-1): > 80 µM (inactive) | IC50 (Hexokinase HKDC1): > 80 µM (inactive)
